# According to patent publication US5998648A, “Anticancer (IV) complexes for oral administration and a method of making the same” (Korea Institute of Science and Technology, priority 1997, dated 1999):
# Columns and labels:
# L1210 leukemia = experiment: Oral anticancer activity (survival time of L1210 leukemia-implanted BDF1 mice); assay type: in vivo, BDF1 mice; L1210 cells from DBA/2 mice; conditions: for Increase ratio in the survival time (T/C, %): Dose 150 mg/kg, daily for consecutive five days, L1210 implanted intraperitoneally
# Procedure: The oral anticancer activity of the hexa-coordinate platinum(IV) complexes of the present invention was evaluated as follows. A group of eight 6-week old BDF1 mice was employed to test for each compound. 1×10^5 cells of L1210 leukemia in ascitic fluid from DBA/2 mice were implanted intraperitoneally in each mouse. The test solutions containing platinum(IV) complexes at different concentrations were orally administered daily for consecutive five days. The survival time of each group of the mice was recorded. The percent increase in the survival time as compared to the control group, T/C (%), was calculated as an indicator of the anticancer activity. The results are summarized in Table I. Drugs that have more than 125% of the T/C (%) values can be considered as efficient anticancer drugs. […] It is expected that the complex in Example 1 could be practically applicable since the acute toxicity was also low (LD50 =300 mg/kg)
# Acute toxicity = assay type: in vivo
Molecule,"Increase ratio in the survival time (T/C, %) (L1210 leukemia)",anticancer activity (in words) (L1210 leukemia),acute toxicity / toxicity (in words) (Acute toxicity; in vivo),acute toxicity LD50 (Acute toxicity; species and route not given)
"CCCC(=O)[O][Pt]1([O]C(=O)CCC)([O]C(=O)CCC)([O]C(=O)CCC)[NH]CC[NH]1 [Example 4, (NH2 CH2 CH2 NH2)Pt(OOCC3 H7)4]",115.4%,,,
CCC(=O)[O][Pt]([O]C(=O)CC)([O]C(=O)CC)[O]C(=O)CC.NC1CCCCC1N [Example 1],160.9%,excellent anticancer activity,low,300 mg/kg
"[OH][Pt]1([OH])([OH])([OH])[NH]C2CCCCC2[NH]1 (stereo not drawn) [compound 1, (DACH)Pt(OH)4, reference compound]",108.8%,,,
CCCC(=O)[O][Pt]1([O]C(=O)CCC)([O]C(=O)CCC)([O]C(=O)CCC)[NH]C2CCCCC2[NH]1 (stereo not drawn) [Example 2],139.1%,,,
"(DACH)PtCl2 (OAc)4 [compound 2, reference compound]",103.1%,,,
[NH2 CH2 C(CH3)2 CH2 NH2 ]Pt(OOCC2 H5)4 [Example 6],130.8%,,,
